According to patent publication US20240368135A1 (VERTEX PHARMACEUTICALS INCORPORATED, priority 2021, published 2024):
Read-outs that look alike come from different tables or passages of the source.

Target: human NaV 1.8 (Homo sapiens, UniProt Q9Y5Y9)
Experiment: E-VIPR assay detecting and measuring NaV inhibition properties
Assay type: cell-based
Conditions: HEK cells expressing truncated human NaV 1.8
In short: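 Membrane potential was followed by coumarin/oxonol FRET during electrical field stimulation of matrigel-seeded HEK cells carrying truncated human NaV1.8 plus KIR2.1. Dosing used 11 points, 3-fold steps, top 300 nM final, 0.625% DMSO, with or without 25% human serum.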

[1] = no human serum, read-out: IC50 in the E-VIPR Assay
[2] = in the presence of human serum (compound numbers followed by *), read-out: IC50 in the E-VIPR Assay, performed in the presence of human serum

human NaV 1.8, sequence (Q9Y5Y9 126-399 limits assumed): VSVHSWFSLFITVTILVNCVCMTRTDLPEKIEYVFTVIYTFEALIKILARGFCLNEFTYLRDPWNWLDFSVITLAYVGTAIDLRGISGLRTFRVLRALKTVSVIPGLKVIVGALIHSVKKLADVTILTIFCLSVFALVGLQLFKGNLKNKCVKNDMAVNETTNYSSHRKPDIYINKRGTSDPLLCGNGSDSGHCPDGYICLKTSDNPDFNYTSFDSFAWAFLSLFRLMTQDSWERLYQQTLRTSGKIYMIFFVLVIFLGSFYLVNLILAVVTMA
human NaV 1.8, sequence (Q9Y5Y9 660-890 limits assumed): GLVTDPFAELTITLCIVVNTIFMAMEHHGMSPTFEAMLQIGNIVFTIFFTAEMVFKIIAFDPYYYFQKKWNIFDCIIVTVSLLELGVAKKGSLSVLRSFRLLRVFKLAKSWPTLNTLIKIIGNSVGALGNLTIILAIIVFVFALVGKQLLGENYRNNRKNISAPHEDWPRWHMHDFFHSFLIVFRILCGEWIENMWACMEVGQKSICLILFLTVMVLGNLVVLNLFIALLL
human NaV 1.8, sequence (Q9Y5Y9 1148-1722 limits assumed): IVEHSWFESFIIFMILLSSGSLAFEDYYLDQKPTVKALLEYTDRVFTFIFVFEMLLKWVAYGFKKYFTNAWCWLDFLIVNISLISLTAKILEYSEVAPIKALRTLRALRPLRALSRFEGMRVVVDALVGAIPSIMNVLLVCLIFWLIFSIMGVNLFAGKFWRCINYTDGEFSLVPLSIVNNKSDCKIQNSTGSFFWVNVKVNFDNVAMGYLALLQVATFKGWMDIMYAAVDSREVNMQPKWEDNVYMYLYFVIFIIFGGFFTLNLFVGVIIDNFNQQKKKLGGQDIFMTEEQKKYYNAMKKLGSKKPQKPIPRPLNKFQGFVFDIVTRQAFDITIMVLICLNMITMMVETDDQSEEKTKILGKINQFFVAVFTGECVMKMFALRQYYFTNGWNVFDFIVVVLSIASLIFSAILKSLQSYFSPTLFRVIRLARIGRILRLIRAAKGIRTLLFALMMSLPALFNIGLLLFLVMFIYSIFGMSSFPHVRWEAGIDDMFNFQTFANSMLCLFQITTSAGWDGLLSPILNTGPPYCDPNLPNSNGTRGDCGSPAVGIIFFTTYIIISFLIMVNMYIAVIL

| IC50 [1] [nM] | IC50 [2] [nM] | Structure (SMILES) |
| --- | --- | --- |
| ≥ 1000 |  | COCCn1ccc(NC(=O)[C@@H]2O[C@@](C)(C(F)(F)F)[C@@H](C)[C@H]2c2ccc(F)c(F)c2OCCO)n1 [Compound 552, (2R,3S,4S,5R)-3-(3,4-difluoro-2-(2-hydroxyethoxy)phenyl)-N-(1-(2-methoxyethyl)-1H-pyrazol-3-yl)-4,5-dimethyl-5-(trifluoromethyl)tetrahydrofuran-2-carboxamide] |
| ≥ 1000 |  | C[C@@H]1[C@H](c2ccc(F)c(F)c2OC(F)F)[C@@H](C(=O)Nc2ccc(C(N)=O)cc2)O[C@]1(C)C(F)(F)F (stereo in doubt) [Compound 73, rel-(2S,3R,4R,5S)-N-(4-carbamoylphenyl)-3-(2-(difluoromethoxy)-3,4-difluorophenyl)-4,5-dimethyl-5-(trifluoromethyl)tetrahydrofuran-2-carboxamide] |
| 100 to 1000 |  | COc1c([C@@H]2[C@@H](C(=O)Nc3ccnc(N4CCN(C)CC4=O)c3)O[C@](C)(C(F)(F)F)[C@@H]2C)ccc(F)c1C(F)F (single isomer, unassigned) [Compound 163] |
|  | ≥ 1000 | C[C@@H]1[C@H](c2ccc(F)c(F)c2OC(F)F)[C@@H](C(=O)Nc2cncc(C#N)c2)O[C@]1(C)C(F)(F)F (single isomer, unassigned) [Compound 69] |
| ≥ 1000 |  | COc1c([C@H]2[C@H](C(=O)NCCc3ncc[nH]3)O[C@@](C)(C(F)(F)F)[C@H]2C)ccc(F)c1F [Compound 272, (2R,3S,4S,5R)-3-(3,4-difluoro-2-methoxy-phenyl)-N-[2-(1H-imidazol-2-yl)ethyl]-4,5-dimethyl-5-(trifluoromethyl)tetrahydrofuran-2-carboxamide] |
| < 10 |  | C[C@H]1[C@@H](c2ccc(F)c(F)c2OC(F)F)[C@H](C(=O)Nc2ccn(C)c(=O)c2)O[C@@]1(C)C(F)(F)F (single isomer, unassigned) [Compound 78] |
|  | ≥ 1000 | CCc1c(F)ccc([C@H]2C[C@@](C)(C(F)(F)F)O[C@@H]2C(=O)Nc2cn(S(C)(=O)=O)nc2C)c1OC (stereo in doubt) [Compound 716, rel-(2S,3R,5S)-3-(3-ethyl-4-fluoro-2-methoxyphenyl)-5-methyl-N-(3-methyl-1-(methylsulfonyl)-1H-pyrazol-4-yl)-5-(trifluoromethyl)tetrahydrofuran-2-carboxamide] |
| 10 to 100 |  | COCCOc1c([C@H]2[C@H](C(=O)Nc3ccnc(N4CCN(C)CC4=O)c3)O[C@@](C)(C(F)(F)F)[C@H]2C)ccc(F)c1F [Compound 585, (2R,3S,4S,5R)-3-(3,4-difluoro-2-(2-methoxyethoxy)phenyl)-4,5-dimethyl-N-(2-(4-methyl-2-oxopiperazin-1-yl)pyridin-4-yl)-5-(trifluoromethyl)tetrahydrofuran-2-carboxamide] |
| ≥ 1000 |  | COc1c([C@H]2[C@H](C(=O)Nc3cnc(CCO)n3C)O[C@@](C)(C(F)(F)F)[C@H]2C)ccc(F)c1F [Compound 445, (2R,3S,4S,5R)-3-(3,4-difluoro-2-methoxyphenyl)-N-(2-(2-hydroxyethyl)-1-methyl-1H-imidazol-5-yl)-4,5-dimethyl-5-(trifluoromethyl)tetrahydrofuran-2-carboxamide] |
| < 10 |  | COc1c(C2C(C(=O)Nc3cccnc3)OC(C)(C(F)(F)F)C2C)ccc(F)c1F (single isomer, unassigned) [Compound 30, 3-(3,4-difluoro-2-methoxy-phenyl)-4,5-dimethyl-N-(3-pyridyl)-5-(trifluoromethyl)tetrahydrofuran-2-carboxamide] |
| < 10 |  | COCC(O)c1cc(NC(=O)[C@@H]2O[C@@](C)(C(F)(F)F)[C@@H](C)[C@H]2c2ccc(F)c(F)c2OC)ccn1 (single isomer, unassigned) [Compound 222, rel-(2R*,3S*,4S*,5R*)-3-(3,4-difluoro-2-methoxyphenyl)-N-(2-(1-hydroxy-2-methoxyethyl)pyridin-4-yl)-4,5-dimethyl-5-(trifluoromethyl)tetrahydrofuran-2-carboxamide] |
| 10 to 100 |  | COc1c([C@H]2[C@H](C(=O)Nc3ccnc(N4CCN(C)CCC4=O)c3)O[C@@](C)(C(F)(F)F)[C@H]2C)ccc(F)c1F [Compound 466, (2R,3S,4S,5R)-3-(3,4-difluoro-2-methoxyphenyl)-4,5-dimethyl-N-(2-(4-methyl-7-oxo-1,4-diazepan-1-yl)pyridin-4-yl)-5-(trifluoromethyl)tetrahydrofuran-2-carboxamide] |
| < 10 |  | CN=S(C)(=O)c1cc(NC(=O)C2OC(C)(C(F)(F)F)C(C)C2c2ccc(F)c(C)c2OC)ccn1 (centres unmarked) [Compound 152, N-[2-(N,S-dimethylsulfonimidoyl)-4-pyridyl]-3-(4-fluoro-2-methoxy-3-methyl-phenyl)-4,5-dimethyl-5-(trifluoromethyl)tetrahydrofuran-2-carboxamide] |
| 10 to 100 |  | C[C@H]1[C@@H](c2ccc(F)c(F)c2OCCN2CC3(COC3)C2)[C@H](C(=O)Nc2cccnc2)O[C@@]1(C)C(F)(F)F [Compound 636] |
| 10 to 100 |  | COCc1c(F)ccc([C@H]2[C@H](C(=O)Nc3ccc(C(N)=O)nc3)O[C@@](C)(C(F)(F)F)[C@H]2C)c1OC (stereo in doubt) [Compound 179, rel-5-((2R,3S,4S,5R)-3-(4-fluoro-2-methoxy-3-(methoxymethyl)phenyl)-4,5-dimethyl-5-(trifluoromethyl)tetrahydrofuran-2-carboxamido)picolinamide] |
| 10 to 100 |  | COCC(C)(C)N(C)Cc1cc(NC(=O)[C@@H]2O[C@@](C)(C(F)(F)F)[C@@H](C)[C@H]2c2ccc(F)c(F)c2OC)ccn1 [Compound 15] |
| < 10 |  | CCOc1c([C@H]2[C@H](C(=O)Nc3ccn4nnnc4c3)O[C@@](C)(C(F)(F)F)[C@H]2C)ccc(F)c1C (stereo in doubt) [Compound 123, rel-(2R,3S,4S,5R)-3-(2-ethoxy-4-fluoro-3-methylphenyl)-4,5-dimethyl-N-(tetrazolo[1,5-a]pyridin-7-yl)-5-(trifluoromethyl)tetrahydrofuran-2-carboxamide] |
| ≥ 1000 |  | C[C@@H]1[C@H](c2ccc(F)c(F)c2OC(F)F)[C@@H](C(=O)Nc2ccc(CC(C)(C)O)nc2)O[C@]1(C)C(F)(F)F (single isomer, unassigned) [Compound 461] |
|  | 10 to 100 | COc1c([C@@H]2C[C@](C)(C(F)(F)F)O[C@H]2C(=O)Nc2ccnc(C(O)CO)c2)ccc(F)c1F (single isomer, unassigned) [Compound 685] |
| 10 to 100 |  | C[C@H]1[C@@H](c2ccc(F)c(F)c2OCCN2CC3(COC3)C2)[C@H](C(=O)Nc2ccnc(CO)c2)O[C@@]1(C)C(F)(F)F [Compound 618, (2R,3S,4S,5R)-3-(2-(2-(2-oxa-6-azaspiro[3.3]heptan-6-yl)ethoxy)-3,4-difluorophenyl)-N-(2-(hydroxymethyl)pyridin-4-yl)-4,5-dimethyl-5-(trifluoromethyl)tetrahydrofuran-2-carboxamide] |
| 10 to 100 |  | COc1c([C@H]2[C@H](C(=O)Nc3ccnc(N4CC[C@@H](O)C4=O)c3)O[C@@](C)(C(F)(F)F)[C@H]2C)ccc(F)c1F [Compound 471, (2R,3S,4S,5R)-3-(3,4-difluoro-2-methoxyphenyl)-N-(2-((R)-3-hydroxy-2-oxopyrrolidin-1-yl)pyridin-4-yl)-4,5-dimethyl-5-(trifluoromethyl)tetrahydrofuran-2-carboxamide] |
| < 10 |  | COc1c([C@H]2[C@H](C(=O)Nc3cc(C(C)(N)CO)ncc3F)O[C@@](C)(C(F)(F)F)[C@H]2C)ccc(F)c1F (single isomer, unassigned) [Compound 360] |
|  | ≥ 1000 | COc1c(C2C(C(=O)Nc3ccn(C)c(=O)c3)OC(C)(C(F)(F)F)C2C)ccc(F)c1F (single isomer, unassigned) [Compound 27, 3-(3,4-difluoro-2-methoxy-phenyl)-4,5-dimethyl-N-(1-methyl-2-oxo-4-pyridyl)-5-(trifluoromethyl)tetrahydrofuran-2-carboxamide] |
| < 10 |  | CCS(=O)(=O)c1cc(NC(=O)[C@@H]2O[C@@](C)(C(F)(F)F)[C@@H](C)[C@H]2c2ccc(F)c(F)c2OC(F)F)ccn1 (single isomer, unassigned) [Compound 90] |
| 10 to 100 |  | CNCC(=O)Nc1cc(NC(=O)[C@@H]2O[C@@](C)(C(F)(F)F)[C@@H](C)[C@H]2c2ccc(F)c(F)c2OC)ccn1 [Compound 488] |
| 10 to 100 |  | Cc1nn(C(F)F)cc1NC(=O)[C@@H]1O[C@@](C)(C(F)(F)F)[C@@H](C)[C@H]1c1ccc(F)c(F)c1OCC(N)=O [Compound 605, (2R,3S,4S,5R)-3-(2-(2-amino-2-oxoethoxy)-3,4-difluorophenyl)-N-(1-(difluoromethyl)-3-methyl-1H-pyrazol-4-yl)-4,5-dimethyl-5-(trifluoromethyl)tetrahydrofuran-2-carboxamide] |
| 10 to 100 |  | COc1c([C@H]2[C@H](C(=O)Nc3ccnc(N4C[C@@H]5C[C@H](C4=O)N5C)c3)O[C@@](C)(C(F)(F)F)[C@H]2C)ccc(F)c1F (single isomer, unassigned) [Compound 510, rel-(2R*,3S*,4S*,5R*)-3-(3,4-difluoro-2-methoxyphenyl)-4,5-dimethyl-N-(2-((1R,5S)-6-methyl-2-oxo-3,6-diazabicyclo[3.1.1]heptan-3-yl)pyridin-4-yl)-5-(trifluoromethyl)tetrahydrofuran-2-carboxamide] |
| < 10 |  | COc1c([C@H]2[C@H](C(=O)Nc3ccnc(C4COCCN4C)c3)O[C@@](C)(C(F)(F)F)[C@H]2C)ccc(F)c1F (single isomer, unassigned) [Compound 364, rel-(2R*,3S*,4S*,5R*)-3-(3,4-difluoro-2-methoxyphenyl)-4,5-dimethyl-N-(2-(4-methylmorpholin-3-yl)pyridin-4-yl)-5-(trifluoromethyl)tetrahydrofuran-2-carboxamide] |
| 10 to 100 |  | COc1c(C2C(C(=O)Nc3ccc(C(N)=O)nc3)OC(C)(C(F)(F)F)C2C)ccc(C(F)F)c1F (centres unmarked) [Compound 158, 5-[[3-[4-(difluoromethyl)-3-fluoro-2-methoxy-phenyl]-4,5-dimethyl-5-(trifluoromethyl)tetrahydrofuran-2-carbonyl]amino]pyridine-2-carboxamide] |
